Laboratory results: US20250289789A1, “REVERSIBLE LYSINE COVALENT MODIFIERS OF CDK2 AND USES THEREOF” (Terremoto Biosciences, Inc., priority 2023, published 2025)

Columns and labels:
Format in all cases: cell-based
[1] = system: Phospho-Rb Ser807/811 in OVCAR3 cells; test: OVCAR3 Phospho-Rb Ser807/811 HTRF assay; details: Homo sapiens, OVCAR-3, 1 h, OVCAR3 cells, Phospho-Rb Ser807/811 HTRF, 1 hour incubation; read-out: pRb-OVCAR3 IC50
Procedure: Cells were trypsinized and resuspended in 1 mM hydroxyurea (Sigma; H8627), 90% RPMI and 10% fetal bovine serum. […] Dose response curve normalized to DMSO control was plotted using four-parameter logistic model for IC50 calculation.

[2] = target: T1, CDK4-NanoLuc fusion with CCND1 in 293T or 293 cells (Homo sapiens, UniProt P11802); test: NanoBRET Target Engagement (TE) Intracellular Kinase Assay, CDK4/CCND1; details: NanoBRET TE intracellular kinase assay, 2-hour incubation, read-out: NanoBRET-CDK4/D1 IC50
T1 construct: host or cells: 293T (ATCC CRL-3216) or 293 (ATCC CRL-1573)
Procedure: (§1) Inhibitory effects of compounds were measured in NanoBRET TE Intracellular Kinase Assay. […] Cells were co-transfected with 1 μg/mL of CDK-NanoLuc Fusion Vector (Promega; NV2701 for CDK1, NV2781 for CDK2, NV2811 for CDK4, NV2841 for CDK6) and 1 μg/mL of the corresponding Cyclin Expression Vector (Promega; NV2601 for CCNB1, NV2641 for CCNE1, NV2621 for CCND1, NV2631 for CCND3) using FuGENE HD Transfection Reagent (Promega; E2311). […] 20 uL/well of 3× Intracellular TE Nano-Glo Substrate/Inhibitor (Promega; N2162) were added to 384-well plates and incubated for 3 minutes at room temperature. NanoBRET signals (donor emission wavelength at 450 nm, acceptor emission wavelength at 610 nm) were measured using Envision plate reader (PerkinElmer). NanoBRET ratio was calculated by: BRET Ratio=raw signal for acceptor/raw signal for donor. Dose response curve normalized to DMSO control was plotted using four-parameter logistic model for IC50 calculation.

[3] = target: T2, CDK2-NanoLuc fusion with CCNE1 in 293T or 293 cells (Homo sapiens, UniProt P24941); test: NanoBRET Target Engagement (TE) Intracellular Kinase Assay, CDK2/CCNE1; details: NanoBRET TE intracellular kinase assay, 2-hour incubation, read-out: NanoBRET-CDK2/E1 IC50
T2 construct: host or cells: 293T (ATCC CRL-3216) or 293 (ATCC CRL-1573)
Procedure: as §1

T1 sequence (P11802 whole entry, the tested form may be a part): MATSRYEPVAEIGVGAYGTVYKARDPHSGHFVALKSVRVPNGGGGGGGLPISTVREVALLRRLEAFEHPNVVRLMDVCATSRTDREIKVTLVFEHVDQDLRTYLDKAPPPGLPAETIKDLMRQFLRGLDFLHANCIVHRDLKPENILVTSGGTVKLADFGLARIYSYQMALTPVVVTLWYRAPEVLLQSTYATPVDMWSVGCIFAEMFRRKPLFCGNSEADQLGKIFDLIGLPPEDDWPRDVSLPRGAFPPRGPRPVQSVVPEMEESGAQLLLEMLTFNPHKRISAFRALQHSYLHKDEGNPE
T1 sequence (P24385 whole entry partner, the tested form may be a part): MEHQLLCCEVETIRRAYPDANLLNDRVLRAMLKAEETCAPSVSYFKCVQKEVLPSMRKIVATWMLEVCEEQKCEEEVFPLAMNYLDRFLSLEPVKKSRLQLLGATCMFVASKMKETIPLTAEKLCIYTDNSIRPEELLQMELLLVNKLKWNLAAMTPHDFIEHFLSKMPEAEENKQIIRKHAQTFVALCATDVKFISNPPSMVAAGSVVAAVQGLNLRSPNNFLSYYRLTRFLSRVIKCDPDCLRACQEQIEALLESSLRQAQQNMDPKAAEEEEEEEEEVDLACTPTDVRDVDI

SMILES	IC50 [1]	IC50 [2]	IC50 [3]
COc1cc(O)c(C=O)c(OCC(=O)Nc2cc([C@H]3CC[C@@H](OC(=O)N4[C@H](C)C[C@@H]4C)C3)[nH]n2)c1 [Compound 123]	0.027 µM	2.57 µM	0.00262 µM
COc1cc(O)c(C=O)c(OCC(=O)Nc2cc([C@H]3CC[C@@H](OC(=O)N4C[C@@H](F)[C@H](F)C4)C3)n[nH]2)c1 [Compound 124]	0.0377 µM	2.58 µM	0.00199 µM
COc1cc(O)c(C=O)c(OCC(=O)Nc2cc([C@H]3CC[C@@H](OC(=O)N4C[C@H](F)C[C@@H]4C)C3)n[nH]2)c1 [Compound 125]	0.0534 µM	1.54 µM	0.00312 µM
COc1cc(O)c(C=O)c(OCC(=O)Nc2cc([C@H]3CC[C@@H](OC(=O)NCC#N)C3)[nH]n2)c1 [Compound 127]	0.0983 µM	8.53 µM	0.0259 µM
COc1cc(O)c(C=O)c(OCC(=O)Nc2cc([C@H]3CC[C@@H](OC(=O)N4CC(F)(F)C4)C3)[nH]n2)c1 [Compound 129]	0.0445 µM	7.62 µM	0.00196 µM
COc1cc(O)c(C=O)c(O[C@H](C)C(=O)Nc2cc([C@H]3CC[C@@H](OC(=O)NC4(C)CC4)C3)[nH]n2)c1 [Compound 130, (1R,3S)-3-(3-((R)-2-(2-formyl-3-hydroxy-5-methoxyphenoxy)propanamido)-1H-pyrazol-5-yl)cyclopentyl (1-methylcyclopropyl)carbamate]	0.0249 µM	0.864 µM	0.00369 µM
COc1cc(O)c(C=O)c(OCC(=O)Nc2cc([C@H]3CC[C@@H](OC(=O)N4CCC[C@H](C#N)C4)C3)[nH]n2)c1 [Compound 131, (1R,3S)-3-{5-[2-(2-formyl-3-hydroxy-5-methoxyphenoxy)acetamido]-2H-pyrazol-3-yl}cyclopentyl (3S)-3-cyanopiperidine-1-carboxylate]	0.0125 µM	0.697 µM	0.00325 µM
COc1cc(O)c(C=O)c(OCC(=O)Nc2cc([C@H]3CC[C@@H](OC(=O)N[C@@H]4C[C@@H]4F)C3)[nH]n2)c1 [Compound 133]	0.0196 µM	2.8 µM	0.00442 µM
COc1cc(O)c(C=O)c(OCC(=O)Nc2cc([C@H]3CC[C@@H](OC(=O)N[C@@H](C)C(F)F)C3)[nH]n2)c1 [Compound 134]	0.0371 µM	3.8 µM	0.00326 µM
CCCONC(=O)O[C@@H]1CC[C@H](c2cc(NC(=O)COc3cc(OC)cc(O)c3C=O)n[nH]2)C1 [Compound 135]	0.0927 µM	> 10 µM	0.00341 µM
COc1cc(O)c(C=O)c(OCC(=O)Nc2cc([C@H]3CC[C@@H](OC(=O)NC4(CF)CC4)C3)[nH]n2)c1 [Compound 136]	0.0169 µM	1.42 µM	0.00222 µM
COc1cc(O)c(C=O)c(OCC(=O)Nc2cc([C@H]3CC[C@@H](OC(=O)NCc4cnn(C)c4)C3)[nH]n2)c1 [Compound 137]	0.295 µM	> 10 µM	0.0216 µM
COc1cc(O)c(C=O)c(OCC(=O)Nc2cc([C@H]3CC[C@@H](OC(=O)N[C@H]4C[C@@H](C#N)C4)C3)[nH]n2)c1 [Compound 138]	0.0806 µM	5.86 µM	0.00471 µM
Cc1cc(O)c(C=O)c(OCC(=O)Nc2cc([C@H]3CC[C@@H](OC(=O)NC4(C#N)CC4)C3)[nH]n2)c1 [Compound 139]	0.178 µM	3.99 µM	0.0129 µM
COc1cc(O)c(C=O)c(OCC(=O)Nc2cc([C@H]3CC[C@@H](OC(=O)NC4(C(F)F)CC4)C3)[nH]n2)c1 [Compound 140, (1R,3S)-3-{5-[2-(2-formyl-3-hydroxy-5-methoxyphenoxy)acetamido]-2H-pyrazol-3-yl}cyclopentyl N-[1-(difluoromethyl)cyclopropyl]carbamate]	0.0161 µM	1.08 µM	0.00282 µM
CCc1cc(O)c(C=O)c(OCC(=O)Nc2cc([C@H]3CC[C@@H](OC(=O)NC4(C)CC4)C3)[nH]n2)c1 [Compound 141]	0.1 µM	5.5 µM	0.00187 µM

SMILES	IC50 [1]	IC50 [2]	IC50 [3]
COc1cc(O)c(C=O)c(OCC(=O)Nc2cc([C@H]3CC[C@@H](OC(=O)NCC(F)F)C3)[nH]n2)c1 [Compound 142]	0.0533 µM	7.02 µM	0.00376 µM
COc1cc(O)c(C=O)c(OCC(=O)Nc2cc([C@H]3CC[C@@H](OC(=O)NC[C@H]4CCO4)C3)[nH]n2)c1 [Compound 143]	0.142 µM	> 10 µM	0.0131 µM
C#CCN(CC)C(=O)O[C@@H]1CC[C@H](c2cc(NC(=O)COc3cc(OC)cc(O)c3C=O)n[nH]2)C1 [Compound 144]	0.029 µM	2.34 µM	0.00236 µM
Cc1cc(O)c(C=O)c(OCC(=O)Nc2cc([C@H]3CC[C@@H](OC(=O)NC4(C)CC4)C3)[nH]n2)c1 [Compound 145]	0.0643 µM	4.07 µM	0.00346 µM
COc1cc(O)c(C=O)c(OCC(=O)Nc2cc([C@H]3CC[C@@H](OC(=O)NC4(CC#N)CC4)C3)[nH]n2)c1 [Compound 146]	0.0409 µM	2.38 µM	0.00988 µM
CCN(CC#N)C(=O)O[C@@H]1CC[C@H](c2cc(NC(=O)COc3cc(OC)cc(O)c3C=O)n[nH]2)C1 [Compound 147]	0.0138 µM	2.26 µM	0.00285 µM
COc1cc(O)c(C=O)c(OCC(=O)Nc2cc([C@H]3CC[C@@H](OC(=O)NC4(C#N)CCC4)C3)[nH]n2)c1 [Compound 148]	0.113 µM	4.25 µM	0.00697 µM
COc1cc(O)c(C=O)c(OCC(=O)Nc2cc([C@H]3CC[C@@H](OC(=O)NC4COC4)C3)[nH]n2)c1 [Compound 149]	0.385 µM	> 10 µM	0.0202 µM
COc1cc(O)c(C=O)c(OCC(=O)Nc2cc([C@H]3CC[C@@H](OC(=O)N[C@H]4C[C@@H](C)C4)C3)[nH]n2)c1 [Compound 150]	0.148 µM	3.89 µM	0.00227 µM
COc1cc(O)c(C=O)c(OCC(=O)Nc2cc([C@H]3CC[C@@H](OC(=O)N(C(C)C)C(C)C)C3)[nH]n2)c1 [Compound 151]	0.0361 µM	2.89 µM	0.00347 µM
COc1cc(O)c(C=O)c(OCC(=O)Nc2cc([C@H]3CC[C@@H](OC(=O)N4CC[C@H](C#N)C4)C3)[nH]n2)c1 [Compound 152]	0.03 µM	6.99 µM	0.00762 µM
COc1cc(O)c(C=O)c(OCC(=O)Nc2cc([C@H]3CC[C@@H](OC(=O)N4CC(C#N)C4)C3)[nH]n2)c1 [Compound 153]	0.0497 µM	> 10 µM	0.0131 µM
COc1cc(O)c(C=O)c(OCC(=O)Nc2cc([C@H]3CC[C@@H](OC(=O)N4[C@@H]5CC[C@H]4C[C@H](C#N)C5)C3)[nH]n2)c1 [Compound 154]	0.0278 µM	2.1 µM	0.00773 µM
COc1cc(O)c(C=O)c(OCC(=O)Nc2cc([C@H]3CC[C@@H](OC(=O)N(C)CCC#N)C3)[nH]n2)c1 [Compound 155]	0.0235 µM	6.3 µM	0.00765 µM
COc1cc(O)c(C=O)c(OCC(=O)Nc2cc([C@H]3CC[C@@H](OC(=O)NCCCC#N)C3)[nH]n2)c1 [Compound 156]	0.0338 µM	> 10 µM	0.0101 µM
COc1cc(O)c(C=O)c(OCC(=O)Nc2cc([C@H]3CC[C@@H](OC(=O)N4C[C@@H]5CC[C@H]4CO5)C3)[nH]n2)c1 [Compound 157]	0.07 µM	7 µM	0.00679 µM
